Measurements taken from ChEMBL document CHEMBL1150601, “Lyngbouilloside, a novel glycosidic macrolide from the marine cyanobacterium Lyngbya bouillonii” (J Nat Prod, 2002).

Test: Cytotoxicity against mouse Neuro2a cells
Assay type: functional, cell-based
Settings: N2a

CC/C=C/C=C/CC[C@]1(C)C[C@H](O)[C@H](C)CC[C@H]2C[C@@H](O[C@@H]3O[C@@H](C)[C@H](OC)[C@@H](O)[C@H]3OC)C[C@@](O)(CC(=O)O1)O2 [LYNGBOUILLOSIDE]
IC50: 17 µM
